Measurements published in patent US7208154B2, “Methods and compositions for the treatment of MHC-associated conditions” (Regents of the University of Michigan, priority 2002, dated 2007).
No end group written: not given here.

How the values were obtained:
[1] = system: human fibroblastoid line M1 cells
From the text: To further determine the signaling pathways involved in DNA repair induction, the inventors used the Trevigen CometAssay™ kit (Cat. No. 4250-50-K). The CometAssay is a single-cell gel electrophoresis method that can measure a variety of types of DNA damage, and repair of damage, in individual cells. The assay is based on the alkaline lysis of labile DNA at sites of damage. The unwound, relaxed DNA is able to migrate out of the cell during electrophoresis and can be visualized by SYBR Green staining.
To quantify DNA damage, cells were collected and three parallel samples were processed (a negative control, a DNA damage control (H2O2) and a sample subjected to H2O2 following exposure to various modulators of the cAMP signaling pathway). Cells are then washed in PBS. The washed cells are combined with molten low-melting agarose (Trevigen Cat. No. 4250-50-02) and transferred to a CometSlide™ (Trevigen Cat. No. 4250-100-03). The slides are immersed in lysis buffer for 30 min, on ice, in the dark. The slides are then treated with alkali buffer for 20 to 60 min at room temperature in the dark. The slides are then electrophoresed in buffer for 10 min at 20 volts, then fixed in methanol and ethanol. The slides are then stained with SYBR green (Trevigen Cat. No. 4250-50-05) solution and fluorescently imaged with a Diagnostic Instruments digitized camera, mounted on a Nikon Eclipse E400 microscope. Scion Image software is used to quantitate the comet tail intensity. Each data point is derived from tail fluorescent intensity determination in 50–100 individual cells. Data is presented as % DNA repair (the percent decrement in tail fluorescence intensity in agonist or antagonist-treated cells, relative to the intensity recorded in cells treated with H2O2 only)±SEM. (R.U.s)
To directly examine that possibility, cells were incubated overnight with synthetic peptides corresponding to the region contained within amino acids 65–79 and their ability to mount DNA repair activity in response to cAMP-elevating agents was determined. M1 cells were preincubated overnight with 50 μg/ml of synthetic peptides corresponding to the region surrounding the third allelic hypervariable region (aa 65–79) of each of the following DRβ chains: *0401 (65–79*0401) [SEQ ID NO: 5], *0402 (65–79*0402) [SEQ ID NO: 7], *0403 (65–79*0403) [SEQ ID NO: 9] or *0404(65–79*0404) [SEQ ID NO: 10]. At the end of the preincubation, cells were collected, washed and 2CA-induced DNA repair was determined as above. Table 3 (above) lists the different third allelic hypervariable region peptides used in the entire study disclosed here.
A modified method as described previously by Auger et al. [Nature Med 2:306–310 1996] was used. Briefly, cyanogen bromide activated Speharose 4B (1.5 ml) was washed with 1 mM HCl and incubated with peptides in 0.1 M NaHCO3 and 0.5 M NaCl (pH 8) buffer overnight at 4° C. For each peptide, 5 mg was used per milliliter of Sepharose. Free Sepharose groups were blocked with 0.2 M glycine (pH 8) for 2 hours at room temperature. Columns were washed at 4° C. with the following buffers: 0.1 M NaHCO3, 0.5 M NaCl (pH 8) buffer, then 0.5 M CH3COONa (pH 4) buffer and finally PBS at pH 7.5. M1 cells were plated at a density of 0.5×10^6 cells per well (6 well plate) in 10% FBS DMEM medium until 70–80% confluence. Prior to incubation with peptides, cultures were changed to serum-free DMEM medium, then evenly overlaid with 50 μg bead conjugated peptides, and incubated for the indicated period. Soluble peptides were added overnight to M1 cells at a concentration of 50 μg/ml.

M1 cells = test: cGMP level (enzyme immunoassay) in M1 cells; format: cell-based, human; details: M1 cells exposed to 50 μg/ml soluble peptide
Experimental: cGMP was determined using an Amersham Pharmacia Biotech cGMP enzymeimmunoassay (EIA) system (Code RPN 226). The reagents (lysis reagents, standards, antibody, cGMP conjugate and wash buffer) are all prepared according to the manufacturer's instructions. Briefly, samples are acetylated with acetylation reagent (acetic anhydride in triethylamine) and then incubated with the antibody reagent and lysis buffer according to the manufacturer's instructions. The cGMP conjugate is then added and the microtiter plate is incubated according to the manufacturer's instructions. The wells are aspirated and washed, enzyme substrate is added and incubated, and the plate can be read at 630 nm or 450 nm (depending on the length of incubation and how the reaction was terminated). Controls are carried out as recommended by the manufacturer, and the results are calculated according to the manufacturer.
D.) cGMP levels in M1 cells were determined as described above using an enzyme immunoassay kit (Pharmacia) at different time points following exposure to 50 μg/ml of soluble 65–78*0401 [SEQ ID NO: 6] or 65–78*0402 [SEQ ID NO: 8] peptides.

[2] = system: hybrid neuroblastoma-glioma NG108–15 cell line; test: Neuroprotection in acutely stressed NG108–15 cells; format: cell-based
Experimental: In order to assess whether shared epitope-containing peptides exert a neuroprotective effect, preliminary experiments were carried out with the hybrid neuroblastoma-glioma NG108–15 cell line. Cells (10^5/ml) were first cultured overnight at near-confluence in 24-well plates in DMEM medium supplemented with 1% fetal calf serum (FCS). Under these conditions, NG108–15 cells show a flat, multipolar morphology and neurite formation. After 20 hours, cells were stressed acutely in serum-free medium (by aspiration of the medium and replacement with serum-free DMEM) with 50 μg/ml of peptides and evaluated morphologically at different time points thereafter. […] Morphological differences between cultures treated with different peptides could be observed as early as 5–6 hrs after treatment. The photographs shown were taken at the 24 hr time point. In another experiment (FIG. 12C), NG108–15 cells were cultured at low cell density (2×10^4/ml) in 1% FCS-containing DMEM medium overnight. The next day cells were subjected to acute stress in serum-free and low glucose (RPMI1640) medium (after aspiration of the 1% FCS DMEM) in the presence of 50 μg/ml of either 65–78*0401 [SEQ ID NO: 6] or 65–78*0402 [SEQ ID NO: 8] peptides. After 72 hours, cells were fixed with 1% formaldehyde and inspected microscopically. Mean±SEM was determined by averaging cell counts in eight randomly-selected microscopic fields in 200× magnification. Neurite-positive cells were defined as cells with one or more projections extending at least twice as long as the cell diameter. […] (FIG. 12C). The calculated number of neurite-positive cells was over 6-fold higher in shared epitope-containing peptide-cultured cells. When cultured in the presence of lysophosphatidic acid or high concentrations of serum, neuronal cells undergo neurite retraction (130). […] Thus, it is concluded that shared epitope-containing peptides may exert neuroprotective effects.

calreticulin [3] = molecular target: T1, calreticulin (Homo sapiens, UniProt P27797); test: Peptide affinity column binding of purified recombinant calreticulin; details: immunoblot of eluate
T1 sequence (P27797 18-417): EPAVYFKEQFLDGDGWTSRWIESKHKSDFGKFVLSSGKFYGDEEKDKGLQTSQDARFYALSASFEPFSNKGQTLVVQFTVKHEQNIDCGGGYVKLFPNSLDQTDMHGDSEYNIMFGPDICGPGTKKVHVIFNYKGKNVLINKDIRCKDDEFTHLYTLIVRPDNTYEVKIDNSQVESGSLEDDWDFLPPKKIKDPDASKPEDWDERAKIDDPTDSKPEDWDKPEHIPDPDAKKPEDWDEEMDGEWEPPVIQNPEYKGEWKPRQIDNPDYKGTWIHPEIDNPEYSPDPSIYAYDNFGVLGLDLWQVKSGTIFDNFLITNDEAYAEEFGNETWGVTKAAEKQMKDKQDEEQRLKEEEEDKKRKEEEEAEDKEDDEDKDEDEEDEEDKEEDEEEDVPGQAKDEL

[4] = system: Total cellular protein extracts; test: Peptide affinity chromatography of total cellular protein extracts; format: binding; details: total cellular protein extracts loaded
From the text: Total cellular protein extracts were loaded onto columns of Sepharose beads, conjugated with either shared epitope-containing peptide 65–78*0404 [SEQ ID NO: 28] or the control peptide 65–78*0402 [SEQ ID NO: 8]. Bound proteins were eluted at low pH. […] 11 sequenced bands matched intracellular proteins, and only two sequences matched previously identified cell surface proteins: heat shock protein 60 (HSP60) and calreticulin. Both calreticulin and HSP60 are chaperones, with strong tendency to form hetero-complexes.

calreticulin [5] = molecular target: T1, calreticulin; test: Blocking of shared epitope peptide-triggered signaling (cAMP-inhibitory effect, genoprotection) in M1 cells; format: cell-based; design: endogenous in cells; host or cells: M1 human fibroblastoid cells; details: M1 cells pre-incubated or transfected
Experimental: Finally, in order to determine whether these neuroprotective peptides transduce their signaling through calreticulin, two complementing protocols were executed: i) Inhibition of peptide-calreticulin interaction using anti-calreticulin antibodies, or ii) blocking calreticulin expression with antisense oligonucleotides (as shown in FIG. 13C and FIG. 13D).
(§1) M1 cells were cultured in 6-well plate to 60–70% confluency. M1 cells were treated by 0.2 μM antisense oligonucleotide for 24 to 48 hr, using Lipofectin as a carrier. Calreticulin expression levels were determined by Western-blot and flow cytometry, using anti-calreticulin antibodies. Polyclonal rabbit anti-human calreticulin antibodies were obtained from ABR, Golden, CO.

calreticulin [6] = test: Calreticulin cell surface expression in M1 cells (Western-blot, flow cytometry); format: cell-based, human; details: 0.2 μM oligonucleotide, 24 to 48 hr, Lipofectin
Experimental: as §1

KDLLEQKRAAVDTY-NH2 [65–78*0401]
IC50 [1]: ~250 nM
cGMP levels (M1 cells): triggered increased cGMP levels
Inhibition of neurite retraction effect of 10% FCS ([2]; data not shown): inhibited the neurite retraction effect
Survival rate versus control peptide 65–78*0402 ([2]; low density, serum-free low glucose medium, 50 μg/ml, 72 hours, p<0.0005): significantly higher survival rate
Percentage of neurite-positive cells versus control peptide 65–78*0402 ([2]; low density, serum-free low glucose medium, 50 μg/ml, 72 hours, p<0.001): higher percentage of neurite-positive cells
Cell morphology after acute serum-free stress ([2]; near-confluent NG108–15, 50 μg/ml peptide, 24 hr): greater preservation of the multipolar flat cell morphology with neurites
Calculated number of neurite-positive cells, fold higher than control peptide ([2]; serum-free low glucose medium, 50 μg/ml, 72 hours): over 6 fold

KDLLEQRRAAVDTY [65–78*0404, synthetic peptide corresponding to amino acids 65–78 of the β chain encoded by the HLA-DRB*0404 allele]
Binding of recombinant human calreticulin to peptide affinity column (calreticulin [3]): specifically bound
Protein binding: distinct bands in low pH eluates of peptide-conjugated Sepharose column [4]: ~20

5′-GGATAGCAGCATGGCGGGCCG-3′ (listed as DNA, chemistry not given here) [calreticulin antisense oligonucleotides, calreticulin antisense oligonucleotide synthesized by Operon]
Block of shared epitope peptide-triggered signaling / inhibitory effect on genoprotection (calreticulin [5]): blocked peptide-triggered signaling
Inhibition of calreticulin cell surface expression (calreticulin [6]): inhibited cell surface expression
